Data taken from patent US20090192176A1, “1H-PYRAZOLO[3,4-D]PYRIMIDINE, PURINE, 7H-PURIN-8(9H)-ONE, 3H-[1,2,3]TRIAZOLO[4,5-D]PYRIMIDINE, AND THIENO[3,2-D]PYRIMIDINE COMPOUNDS, THEIR USE AS mTOR KINASE AND PI3 KINASE INHIBITORS, AND THEIR SYNTHESES” (Wyeth, priority 2008, published 2009).

Assays:
Assay type in all cases: biochemical
[1] = biological target: T1, Human mTOR (Homo sapiens, UniProt P42345); assay: mTOR kinase assay (DELFIA format, purified enzyme); details: His6-S6K substrate, read-out: TOR Kinase IC50
T1 construct: FLAG
Protocol: mTOR Kinase Assay Methods
Human mTOR assays (See Toral-Barza, et al. Biochem Biophys. Res. Commun. 2005 Jun. 24; 332(1):304-10) with purified enzyme are performed in 96-well plates by DELFIA format as follows. Enzymes are first diluted in kinase assay buffer (10 mM HEPES (pH 7.4), 50 mM NaCl, 50 mM β-glycerophosphate, 10 mM MnCl2, 0.5 mM DTT, 0.25 mM microcystin LR, and […]). To each well, 12 μL of the diluted enzyme is mixed briefly with 0.5 μL test inhibitor or control vehicle dimethylsulfoxide (DMSO). The kinase reaction is initiated by adding 12.5 μL kinase assay buffer containing ATP and His6-S6K to give a final reaction volume of 25 μL containing 800 ng/mL FLAG-TOR, […] and […]. The reaction plate is incubated for 2 hours (linear at 1-6 hours) at room temperature with gentle shaking and then terminated by adding 25 μL Stop buffer (20 mM HEPES (pH 7.4), 20 mM EDTA, 20 mM EGTA). The DELFIA detection of the phosphorylated (Thr-389) His6-S6K is performed at room temperature using a monoclonal anti-P(T389)-p70S6K antibody (1A5, Cell Signaling) labeled with Europium-N1-ITC (Eu) (10.4 Eu per antibody, PerkinElmer). The DELFIA Assay buffer and Enhancement solution can be purchased from PerkinElmer. 45 μL of the terminated kinase reaction mixture is transferred to a MaxiSorp plate (Nunc) containing 55 μL PBS. The His6-S6K is allowed to attach for 2 hours after which the wells are aspirated and washed once with PBS. 100 μL of DELFIA Assay buffer with 40 ng/mL Eu-P(T389)-S6K antibody is added. The antibody binding is continued for 1 hour with gentle agitation. The wells are then aspirated and washed 4 times with PBS containing 0.05% Tween-20 (PBST). 100 μL of DELFIA Enhancement solution is added to each well and the plates are read in a PerkinElmer Victor model plate reader. Data obtained is used to calculate enzymatic activity and enzyme inhibition by potential inhibitors.

[2] = biological target: PI3 Kinase α (Homo sapiens, UniProt P42336); assay: Fluorescence polarization assay for PI3K
Protocol: (§1) Fluorescence Polarization Assay for PI3K
(§2) This assay is used to determine the IC50 of compounds of the present invention as it identifies inhibitors of PI3 kinase by measuring inhibition.
(§3) Reaction Buffer: 20 mM HEPES, pH 7.5, 2 mM MgCl2, 0.05% CHAPS; and 0.01% BME (added fresh) Stop/Detection Buffer: 100 mM HEPES, pH 7.5, 4 mM EDTA, 0.05% CHAPS; ATP 20 mM in water; PIP2 (diC8, cat# P-4508) 1 mM in water (MW=856.5); GST-GRP 1.75 mg/mL or 1.4 mg/mL in 10% glycerol; Red detector (TAMRA) 2.5 μM; Plate: Nunc 384 well black polypropylene fluorescence plate.
(§4) The assay is run by placing 5 μL of diluted enzyme per well, then 5 μL of diluted compound (or 9.5 μL enzyme then 0.5 μL compound in DMSO) is added and mixed. Then, 10 μL substrate is added to start the reaction. The samples are incubated 30-60 minutes, then the reaction is stopped by adding 20 μL stop/detector mix. PI3K is diluted with reaction buffer (e.g., 5 μL or 7.5 μL PI3K into 620 μL reaction buffer), and 5 μL of diluted enzyme is used per well. 5 μL reaction buffer or drug diluted in buffer (e.g., 4 μL/100 so final DMSO is 1% in reaction) is added to each. Pipetting up and down mixes the samples. Alternatively, the enzyme can be diluted to 1215 μL. In this case 9.8 μL is added per well and 0.2 μL compound is added in DMSO. To prepare 1 mL of substrate solution, 955 μL reaction buffer, 40 μL PIP2, and 2.5 μL ATP are mixed. 10 μL of substrate is added to each well to start the reaction.
(§5) Stop/detector mix is prepared by mixing 4 μL Red detector and 1.6 μL or 2.0 μL GST-GRP with 1 mL Stop buffer, which results in 10 nM probe and 70 nM GST-GRP). 20 μL of the stop/detector mix is added to each well to stop the reaction. The plates are read after 30-90 minutes keeping the red probe solutions dark. For the zero time point, stop/detector mix is added to the enzyme just before adding substrate. For an extra control, stop/detector mix is added to buffer (no enzyme) and substrate or to just buffer (no substrate). […] The recommended reaction has 0.06 μL per 20 μL (0.015 μg/20 μL) or 0.01125 μg/15 μL or 0.75 μg/mL. Plates are read on machines with filters for Tamra. The units are mP with no enzyme controls reading app 190-220 mP units. Fully active enzyme reduces fluorescence polarization down to 70-100 mP after 30 minutes. An active compound raises the mP values halfway to control or to 120-150 mP units.

[3] = biological target: PI3 Kinase γ (Homo sapiens, UniProt P48736); assay: Fluorescence polarization assay for PI3K
Protocol: as §1, §2, §3, §4, §5

Chain of PI3 Kinase α (P42336 whole entry): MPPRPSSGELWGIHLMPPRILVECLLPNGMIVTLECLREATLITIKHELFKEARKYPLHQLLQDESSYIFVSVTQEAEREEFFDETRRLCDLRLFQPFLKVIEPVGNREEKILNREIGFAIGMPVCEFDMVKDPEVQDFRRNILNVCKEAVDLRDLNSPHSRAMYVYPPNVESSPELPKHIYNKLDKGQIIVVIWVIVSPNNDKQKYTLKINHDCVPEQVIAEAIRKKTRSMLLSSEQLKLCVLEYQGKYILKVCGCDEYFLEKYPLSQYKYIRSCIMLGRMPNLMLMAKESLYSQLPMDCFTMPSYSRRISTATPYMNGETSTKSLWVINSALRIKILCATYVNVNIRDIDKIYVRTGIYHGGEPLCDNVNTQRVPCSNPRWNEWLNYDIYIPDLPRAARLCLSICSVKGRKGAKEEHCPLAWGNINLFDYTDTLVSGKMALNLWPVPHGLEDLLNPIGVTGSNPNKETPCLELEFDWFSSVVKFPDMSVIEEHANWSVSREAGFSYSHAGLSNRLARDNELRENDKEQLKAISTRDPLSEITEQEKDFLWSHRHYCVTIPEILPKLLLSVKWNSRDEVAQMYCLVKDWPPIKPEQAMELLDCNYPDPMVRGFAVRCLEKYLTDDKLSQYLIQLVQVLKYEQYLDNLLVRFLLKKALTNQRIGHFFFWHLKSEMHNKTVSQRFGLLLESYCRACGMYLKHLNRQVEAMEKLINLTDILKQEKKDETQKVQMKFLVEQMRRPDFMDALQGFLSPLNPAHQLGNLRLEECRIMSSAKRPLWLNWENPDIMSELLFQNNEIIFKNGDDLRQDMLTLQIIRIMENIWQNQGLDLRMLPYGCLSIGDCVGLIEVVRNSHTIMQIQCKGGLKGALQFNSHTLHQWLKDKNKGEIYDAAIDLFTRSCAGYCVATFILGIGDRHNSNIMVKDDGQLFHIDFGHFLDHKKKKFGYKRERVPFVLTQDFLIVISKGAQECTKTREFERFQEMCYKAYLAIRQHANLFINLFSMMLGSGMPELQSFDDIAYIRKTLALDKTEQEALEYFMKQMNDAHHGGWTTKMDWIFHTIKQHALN
Chain of PI3 Kinase α (P27986 whole entry partner): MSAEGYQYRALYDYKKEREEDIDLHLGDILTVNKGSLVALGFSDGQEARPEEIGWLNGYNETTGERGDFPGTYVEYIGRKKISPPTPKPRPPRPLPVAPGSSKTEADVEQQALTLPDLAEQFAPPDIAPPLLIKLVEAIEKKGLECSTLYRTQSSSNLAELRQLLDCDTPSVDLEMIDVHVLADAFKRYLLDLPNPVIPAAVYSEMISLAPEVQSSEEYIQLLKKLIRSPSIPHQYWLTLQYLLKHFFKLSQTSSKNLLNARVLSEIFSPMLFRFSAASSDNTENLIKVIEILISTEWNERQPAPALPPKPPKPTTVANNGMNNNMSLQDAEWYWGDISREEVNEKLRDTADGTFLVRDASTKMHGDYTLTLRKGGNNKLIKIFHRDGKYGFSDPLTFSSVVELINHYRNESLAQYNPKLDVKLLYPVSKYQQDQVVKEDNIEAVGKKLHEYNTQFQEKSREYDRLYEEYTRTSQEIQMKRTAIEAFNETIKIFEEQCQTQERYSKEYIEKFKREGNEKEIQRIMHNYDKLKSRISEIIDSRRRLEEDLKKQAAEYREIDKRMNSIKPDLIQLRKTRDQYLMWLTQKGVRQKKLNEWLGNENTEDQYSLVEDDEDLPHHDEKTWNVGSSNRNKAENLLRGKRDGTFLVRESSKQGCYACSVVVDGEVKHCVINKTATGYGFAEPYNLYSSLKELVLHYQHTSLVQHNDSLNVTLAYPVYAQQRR
Chain of PI3 Kinase γ (P48736 whole entry): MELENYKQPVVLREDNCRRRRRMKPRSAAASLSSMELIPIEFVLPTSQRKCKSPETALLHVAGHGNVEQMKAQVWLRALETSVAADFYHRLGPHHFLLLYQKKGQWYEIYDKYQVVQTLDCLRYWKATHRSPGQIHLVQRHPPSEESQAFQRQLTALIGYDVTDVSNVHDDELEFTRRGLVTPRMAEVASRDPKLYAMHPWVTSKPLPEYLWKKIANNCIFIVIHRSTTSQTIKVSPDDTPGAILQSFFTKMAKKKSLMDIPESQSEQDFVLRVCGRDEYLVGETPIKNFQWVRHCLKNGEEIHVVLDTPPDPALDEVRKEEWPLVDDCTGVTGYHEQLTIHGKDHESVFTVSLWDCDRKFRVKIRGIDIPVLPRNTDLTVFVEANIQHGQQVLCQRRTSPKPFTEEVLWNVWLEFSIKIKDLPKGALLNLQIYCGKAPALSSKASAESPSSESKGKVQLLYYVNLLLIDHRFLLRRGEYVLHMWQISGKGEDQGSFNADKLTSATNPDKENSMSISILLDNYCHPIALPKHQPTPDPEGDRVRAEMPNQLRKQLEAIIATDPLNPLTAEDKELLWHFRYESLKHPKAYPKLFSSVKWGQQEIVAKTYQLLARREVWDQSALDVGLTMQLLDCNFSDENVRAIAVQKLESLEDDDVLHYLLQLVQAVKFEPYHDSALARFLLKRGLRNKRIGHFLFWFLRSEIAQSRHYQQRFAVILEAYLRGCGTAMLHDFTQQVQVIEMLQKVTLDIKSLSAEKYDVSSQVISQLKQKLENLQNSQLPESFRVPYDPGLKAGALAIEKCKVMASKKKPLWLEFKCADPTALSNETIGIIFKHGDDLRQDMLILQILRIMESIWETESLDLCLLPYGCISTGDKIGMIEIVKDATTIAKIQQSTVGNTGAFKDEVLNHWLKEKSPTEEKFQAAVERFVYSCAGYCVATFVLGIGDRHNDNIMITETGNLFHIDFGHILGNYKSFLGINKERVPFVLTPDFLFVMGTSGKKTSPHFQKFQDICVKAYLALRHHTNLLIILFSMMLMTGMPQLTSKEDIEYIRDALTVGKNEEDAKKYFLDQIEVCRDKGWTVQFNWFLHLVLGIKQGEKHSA

Row | IC50 [1] [µM] | IC50 [2] [µM] | IC50 [3] [µM] | Molecule
1 | 9.8 | 1.34 | 6.74 | 5-[9-{1-[(5-bromopyridin-3-yl)methyl]piperidin-4-yl}-6-(3,6-dihydro-2H-pyran-4-yl)-9H-purin-2-yl]pyridin-3-ol [Compound 35]
2 | 14 | 2.43 | 1.61 | 7,9-dibenzyl-6-(3,6-dihydro-2H-pyran-4-yl)-2-(3-hydroxyphenyl)-7,9-dihydro-8H-purin-8-one [Compound 66]
3 | 1.4 | 0.085 | 1.25 | Oc1cccc(-c2nc(C3=CCOCC3)c3nc[nH]c3n2)c1 [Compound 11, 3-[6-(3,6-dihydro-2H-pyran-4-yl)-9H-purin-2-yl]phenol]
4 | 1.8 | 1.77 | 5 | Oc1cccc(-c2nc(C3=CCOCC3)c3ncn(C4CCN(Cc5ccccc5)CC4)c3n2)c1 [Compound 12, 3-[9-(1-benzylpiperidin-4-yl)-6-(3,6-dihydro-2H-pyran-4-yl)-9H-purin-2-yl]phenol]
5 | 1.4 | 0.832 | 0.859 | Oc1cccc(-c2nc(C3=CCOCC3)c3ncn(C4CCN(Cc5ccco5)CC4)c3n2)c1 [Compound 13, 3-{6-(3,6-dihydro-2H-pyran-4-yl)-9-[1-(2-furylmethyl)piperidin-4-yl]-9H-purin-2-yl}phenol]
6 | 0.86 | 1.49 | > 10 | Oc1cccc(-c2nc(C3=CCOCC3)c3ncn(C4CCN(Cc5ccc(N6CCOCC6)nc5)CC4)c3n2)c1 [Compound 14, 3-[6-(3,6-dihydro-2H-pyran-4-yl)-9-{1-[(6-morpholin-4-ylpyridin-3-yl)methyl]piperidin-4-yl}-9H-purin-2-yl]phenol]
7 | 1.4 | 0.28 | 0.736 | Oc1cccc(-c2nc(C3=CCOCC3)c3ncn(C4CCN(Cc5ccc[nH]5)CC4)c3n2)c1 [Compound 15, 3-{6-(3,6-dihydro-2H-pyran-4-yl)-9-[1-(1H-pyrrol-2-ylmethyl)piperidin-4-yl]-9H-purin-2-yl}phenol]
8 | 2.3 | 1.63 | 3.2 | CN1CCC(n2cnc3c(C4=CCOCC4)nc(-c4cccc(O)c4)nc32)CC1 [Compound 16, 3-[6-(3,6-dihydro-2H-pyran-4-yl)-9-(1-methylpiperidin-4-yl)-9H-purin-2-yl]phenol]
9 | 1.2 | 1.06 | 2.58 | Oc1cccc(-c2nc(C3=CCOCC3)c3ncn(C4CCN(Cc5cnc[nH]5)CC4)c3n2)c1 [Compound 17, 3-{6-(3,6-dihydro-2H-pyran-4-yl)-9-[1-(1H-imidazol-5-ylmethyl)piperidin-4-yl]-9H-purin-2-yl}phenol]
10 | 2.1 | 12 | 12 | Cc1ccc(CN2CCC(n3cnc4c(C5=CCOCC5)nc(-c5cccc(O)c5)nc43)CC2)cc1 [Compound 18, 3-{6-(3,6-dihydro-2H-pyran-4-yl)-9-[1-(4-methylbenzyl)piperidin-4-yl]-9H-purin-2-yl}phenol]
11 | 0.69 | 5 | > 10 | Oc1cccc(-c2nc(C3=CCOCC3)c3ncn(C4CCN(Cc5ccc(Br)nc5)CC4)c3n2)c1 [Compound 19, 3-[9-{1-[(6-bromopyridin-3-yl)methyl]piperidin-4-yl}-6-(3,6-dihydro-2H-pyran-4-yl)-9H-purin-2-yl]phenol]
12 |  | 7 | > 10 | Oc1cccc(-c2nc(C3=CCOCC3)c3ncn(C4CCN(Cc5ccc(F)c(F)c5)CC4)c3n2)c1 [Compound 20, 3-{9-[1-(3,4-difluorobenzyl)piperidin-4-yl]-6-(3,6-dihydro-2H-pyran-4-yl)-9H-purin-2-yl}phenol]
13 | 3.5 | 0.952 | 4.36 | OCc1cccc(-c2nc(C3=CCOCC3)c3ncn(C4CCN(Cc5ccccc5)CC4)c3n2)c1 [Compound 21, {3-[9-(1-benzylpiperidin-4-yl)-6-(3,6-dihydro-2H-pyran-4-yl)-9H-purin-2-yl]phenyl}methanol]
14 | 1.9 | 1.05 | 5.41 | OCc1cccc(-c2nc(C3=CCOCC3)c3ncn(C4CCN(Cc5ccc(F)nc5)CC4)c3n2)c1 [Compound 22, {3-[6-(3,6-dihydro-2H-pyran-4-yl)-9-{1-[(6-fluoropyridin-3-yl)methyl]piperidin-4-yl}-9H-purin-2-yl]phenyl}methanol]
15 | 3.8 | 1.49 | 7.37 | OCc1cccc(-c2nc(C3=CCOCC3)c3ncn(C4CCN(Cc5cccnc5)CC4)c3n2)c1 [Compound 23, (3-{6-(3,6-dihydro-2H-pyran-4-yl)-9-[1-(pyridin-3-ylmethyl)piperidin-4-yl]-9H-purin-2-yl}phenyl)methanol]
16 | 1.7 | 1.69 | 7.62 | OCc1cccc(-c2nc(C3=CCOCC3)c3ncn(C4CCN(Cc5ccccn5)CC4)c3n2)c1 [Compound 24, (3-{6-(3,6-dihydro-2H-pyran-4-yl)-9-[1-(pyridin-2-ylmethyl)piperidin-4-yl]-9H-purin-2-yl}phenyl)methanol]
17 | 0.89 | 0.228 | 1.34 | OCc1cccc(-c2nc(C3=CCOCC3)c3ncn(C4CCN(Cc5ccc(Br)nc5)CC4)c3n2)c1 [Compound 25, {3-[9-{1-[(6-bromopyridin-3-yl)methyl]piperidin-4-yl}-6-(3,6-dihydro-2H-pyran-4-yl)-9H-purin-2-yl]phenyl}methanol]
18 | > 4 | 2.67 | 7 | O=C(Nc1ccc(-c2nc(C3=CCOCC3)c3ncn(C4CCNCC4)c3n2)cc1)NC1CCNCC1 [Compound 26, 1-{4-[6-(3,6-dihydro-2H-pyran-4-yl)-9-piperidin-4-yl-9H-purin-2-yl]phenyl}-3-piperidin-4-ylurea]
19 | > 4 | 3.03 | 1.08 | O=C(Nc1ccc(-c2nc(C3=CCOCC3)c3ncn(C4CCN(Cc5ccc[nH]5)CC4)c3n2)cc1)NC1CCN(C(=O)OCc2ccccc2)CC1 [Compound 27, benzyl 4-{[(4-{6-(3,6-dihydro-2H-pyran-4-yl)-9-[1-(1H-pyrrol-2-ylmethyl)piperidin-4-yl]-9H-purin-2-yl}phenyl)carbamoyl]amino}piperidine-1-carboxylate]
20 | 3.6 | 0.384 | 2.4 | Oc1cncc(-c2nc(C3=CCOCC3)c3ncn(C4CCN(Cc5ccccc5)CC4)c3n2)c1 [Compound 28, 5-[9-(1-benzylpiperidin-4-yl)-6-(3,6-dihydro-2H-pyran-4-yl)-9H-purin-2-yl]pyridin-3-ol]
